Experimental data taken from ChEMBL document CHEMBL1152873, “Pseurotin A and its analogues as inhibitors of immunoglobulin E [correction of immunoglobuline E] production” (Bioorg Med Chem Lett, 2009).
Activity calls are given as the source filed them. No cut-off for these calls is given here.

Experiments:
[1] = Inhibition of IL4 and LPS-induced IgE production in BALB/c mouse spleen B cell after 6 days by ELISA; type: functional, tissue-based; settings: 144 h
K562 = test: Cytotoxicity against human K562 cells; type: functional, cell-based
[2] = Cytotoxicity against BALB/c mouse B cells assessed as cell viability; type: cell-based
[3] = Inhibition of PHA-induced BALB/c mouse T cell proliferation at 10 uM; type: cell-based
[4] = Selectivity for IgE production in BALB/c mouse spleen B cells over IgM production in BALB/c mouse spleen B cells; type: functional
B [5] = test: Inhibition of IL4 and LPS-induced IgG production in BALB/c mouse spleen B cell after 6 days by ELISA; type: functional, tissue-based
[6] = Selectivity for IgE production in BALB/c mouse spleen B cells over IgG2a production in BALB/c mouse spleen B cells; type: functional
B [7] = test: Inhibition of IL4 and LPS-induced IgM production in BALB/c mouse spleen B cell after 6 days by ELISA; type: functional, tissue-based
[8] = Selectivity for IgE production in BALB/c mouse spleen B cells over IgG1 production in BALB/c mouse spleen B cells; type: functional
Lymphocyte [9] = test: Immunosuppressive activity in rat lymphocytes assessed as inhibition of mixed-lymphocyte reaction; type: functional, cell-based
Lymphocyte [10] = test: Immunosuppressive activity in rat lymphocytes assessed as inhibition of mixed-lymphocyte reaction at 10 uM; type: functional, cell-based

CNCC1=C(C)C(=O)[C@]2(O1)C(=O)N[C@@](OC)(C(=O)c1ccccc1)[C@@H]2O
IC50 [1]: > 10 µM

CCCCCC[C@H](O)[C@H](O)C1=C(C)C(=O)[C@]2(O1)C(=O)N[C@@](OC)(C(=O)c1ccccc1)[C@@H]2O
IC50 [1]: > 10 µM

COC(=O)CC[C@H](O)[C@H](O)C1=C(C)C(=O)[C@]2(O1)C(=O)N[C@@](OC)(C(=O)c1ccccc1)[C@@H]2O
IC50 [1]: > 10 µM

CO[C@@]1(C(=O)c2ccccc2)NC(=O)[C@]2(OC(C=O)=C(C)C2=O)[C@H]1O
IC50 [1]: > 10 µM

CC/C=C\[C@@H]1O[C@H]1C1=C(C)C(=O)[C@]2(O1)C(=O)N[C@@](OC)(C(=O)c1ccccc1)[C@@H]2O
IC50 [1]: > 10 µM

CCOC(=O)/C=C/C1=C(C)C(=O)[C@]2(O1)C(=O)N[C@@](OC)(C(=O)c1ccccc1)[C@@H]2O
IC50 [1]: > 10 µM

CC/C=C\[C@H](O)[C@H](O)C1=C(C)C(=O)[C@]2(O1)C(=O)N[C@@](OC)(C(=O)c1ccccc1F)[C@@H]2O
IC50 [1]: > 10 µM

CC/C=C\[C@H](O)[C@H](O)C1=C(C)C(=O)[C@]2(O1)C(=O)N[C@@](OC)(C(=O)c1cccc(F)c1)[C@@H]2O
IC50 [1]: > 10 µM

CO[C@@]1(C(=O)c2ccccc2)NC(=O)[C@]2(OC(/C=C/C=O)=C(C)C2=O)[C@H]1O
IC50 [1]: > 10 µM

CO[C@@]1(C(=O)c2ccccc2)NC(=O)[C@]2(OC(/C=C/C#N)=C(C)C2=O)[C@H]1O
IC50 [1]: > 10 µM

COC(=O)/C=C/[C@H](O)[C@H](O)C1=C(C)C(=O)[C@]2(O1)C(=O)N[C@@](OC)(C(=O)c1ccccc1)[C@@H]2O
IC50 [1]: > 10 µM

CO[C@@]1(C(=O)c2ccccc2)NC(=O)[C@]2(OC(CNCc3ccccc3)=C(C)C2=O)[C@H]1O
IC50 [1]: > 10 µM

C=CCNCC1=C(C)C(=O)[C@]2(O1)C(=O)N[C@@](OC)(C(=O)c1ccccc1)[C@@H]2O
IC50 [1]: > 10 µM

CO[C@@]1(C(=O)c2ccccc2)NC(=O)[C@]2(OC(CN(C)Cc3ccccc3)=C(C)C2=O)[C@H]1O
IC50 [1]: > 10 µM

CC/C=C/[C@H](O)[C@H](O)C1=C(C)C(=O)[C@]2(O1)C(=O)N[C@@](OC)(C(=O)c1ccccc1)[C@@H]2O
IC50 [1]: > 10 µM

C/C=C/[C@H](O)[C@H](O)C1=C(C)C(=O)[C@]2(O1)C(=O)N[C@@](OC)(C(=O)c1ccccc1)[C@@H]2O
IC50 [1]: > 10 µM

CCOC(=O)/C=C\C1=C(C)C(=O)[C@]2(O1)C(=O)N[C@@](OC)(C(=O)c1ccccc1)[C@@H]2O
IC50 [1]: > 10 µM

CO[C@@]1(C(=O)c2ccccc2)NC(=O)[C@]2(OC([C@@H](O)[C@@H](O)C=C3CCCCC3)=C(C)C2=O)[C@H]1O
IC50 [1]: > 10 µM

CCOC(=O)/C(C)=C/C1=C(C)C(=O)[C@]2(O1)C(=O)N[C@@](OC)(C(=O)c1ccccc1)[C@@H]2O
IC50 [1]: > 10 µM

CO[C@@]1(C(=O)c2ccccc2)NC(=O)[C@]2(OC(CO)=C(C)C2=O)[C@H]1O
IC50 [1]: > 10 µM

CO[C@@]1(C(=O)c2ccccc2)NC(=O)[C@]2(OC(/C=C/C=C/C(C)=O)=C(C)C2=O)[C@H]1O
IC50 [1]: > 10 µM

CCC[C@H](O)[C@H](O)C1=C(C)C(=O)[C@]2(O1)C(=O)N[C@@](OC)(C(=O)c1ccccc1)[C@@H]2O
IC50 [1]: > 10 µM

CC/C=C\[C@H]1OC(C)(C)O[C@@H]1C1=C(C)C(=O)[C@]2(O1)C(=O)N[C@@](OC)(C(=O)c1ccccc1)[C@@H]2O
IC50 [1]: > 10 µM

CO[C@@]1(C(=O)c2ccccc2)NC(=O)[C@]2(OC([C@@H](O)[C@@H](O)CCCCc3ccccc3)=C(C)C2=O)[C@H]1O
IC50 [1]: > 10 µM

CCCCNCC1=C(C)C(=O)[C@]2(O1)C(=O)N[C@@](OC)(C(=O)c1ccccc1)[C@@H]2O
IC50 (K562): > 10 µM | IC50 [1]: 3.1 µM | IC50 [2]: > 10 µM | inhibition at 10 µM [3]: 2%

CO[C@@]1(C(=O)c2ccccc2)NC(=O)[C@]2(OC(CN3CCCCC3)=C(C)C2=O)[C@H]1O
IC50 [1]: > 10 µM

CO[C@@]1(C(=O)c2ccccc2)NC(=O)[C@]2(OC([C@@H](O)[C@@H](O)/C=C/CCc3ccccc3)=C(C)C2=O)[C@H]1O
IC50 [1]: > 10 µM

CC/C=C\[C@H](O)[C@H](O)C1=C(C)C(=O)[C@]2(O1)[C@@H](OC)N[C@@](OC)(C(=O)c1ccccc1)[C@@H]2O [6-O-METHOXYPSEUROTIN A]
IC50 [1]: > 10 µM

CC/C=C\[C@H](O)[C@H](O)C1=C(C)C(=O)[C@]2(O1)C(=O)N(C)[C@@](OC)(C(=O)c1ccccc1)[C@@H]2O [7-N-METHYLPSEUROTIN A]
IC50 [1]: > 10 µM

CC/C=C\[C@H](O)[C@H](O)C1=C(C)C(=O)[C@]2(O1)C(=O)N[C@@](OCC)(C(=O)c1ccccc1)[C@@H]2O [8-ETHOXYPSEUROTIN A]
IC50 [1]: > 10 µM

CC/C=C\[C@H](O)[C@H](O)C1=C(C)C(=O)[C@]2(C[C@](OC)(C(=O)c3ccccc3)NC2=O)O1 [9-DEOXYPSEUROTIN A]
IC50 [1]: > 10 µM

CC/C=C\[C@H](O)CC1=C(C)C(=O)[C@]2(O1)C(=O)N[C@@](OC)(C(=O)c1ccccc1)[C@@H]2O [10-DEOXYPSEUROTIN A]
Ratio [4]: 44 | Activity (B [5]): Active | IC50 (K562): > 10 µM | IC50 [1]: 0.066 µM | Ratio [6]: 23 | Activity (B [7]): Active | IC50 [2]: 4.4 µM | inhibition at 10 µM [3]: 0% | Ratio [8]: 3.5

CC/C=C\[C@H](OC)[C@H](O)C1=C(C)C(=O)[C@]2(O1)C(=O)N[C@@](OC)(C(=O)c1ccccc1)[C@@H]2O [11-O-METHYLPSEUROTIN A]
IC50 [1]: > 10 µM

CCC1CC1[C@H](O)[C@H](O)C1=C(C)C(=O)[C@]2(O1)C(=O)N[C@@](OC)(C(=O)c1ccccc1)[C@@H]2O (stereo partly specified) [12,13-CYCLOPROPYLPSEUROTIN A]
IC50 [1]: > 10 µM

CC[C@H](Br)[C@@H](Br)[C@H](O)[C@H](O)C1=C(C)C(=O)[C@]2(O1)C(=O)N[C@@](OC)(C(=O)c1ccccc1)[C@@H]2O [12,13-DIBROMOPSEUROTIN A]
IC50 [1]: > 10 µM

CCCC[C@H](O)[C@H](O)C1=C(C)C(=O)[C@]2(O1)C(=O)N[C@@](OC)(C(=O)c1ccccc1)[C@@H]2O [12,13-DIHYDROXYPSEUROTIN A]
IC50 [1]: > 10 µM

CCC1OC1[C@H](O)[C@H](O)C1=C(C)C(=O)[C@]2(O1)C(=O)N[C@@](OC)(C(=O)c1ccccc1)[C@@H]2O (stereo partly specified) [13-EPOXYPSEUROTIN A]
IC50 [1]: > 10 µM

CC/C=C\[C@H](O)[C@H](O)C1=C(C)C(=O)[C@]2(O1)C(=O)N[C@@](OC)(C(O)c1ccccc1)[C@@H]2O (stereo partly specified) [17-DIHYDROPSEUROTIN A]
IC50 [1]: > 10 µM

C[C@]12C=CC(=O)C=C1CC[C@@H]1[C@@H]2[C@@H](O)C[C@@]2(C)[C@H]1CC[C@]2(O)C(=O)CO [PREDNISOLONE]
Ratio [4]: 0.4 | IC50 [1]: 0.0059 µM | Ratio [6]: 0.8 | IC50 [2]: > 10 µM | inhibition at 10 µM [3]: 84% | IC50 (Lymphocyte [9]): 0.078 µM | Ratio [8]: 1

CC/C=C\[C@H](O)[C@H](O)C1=C(C)C(=O)[C@]2(O1)C(=O)N[C@@](OC)(C(=O)c1ccccc1)[C@@H]2O [PSEUROTIN A]
IC50 (K562): > 10 µM | IC50 [1]: 3.6 µM | Activity (Lymphocyte [10]): inactive | IC50 [2]: > 10 µM | inhibition at 10 µM [3]: 0% | IC50 (Lymphocyte [9]): > 10 µM

CO[C@@]1(C(=O)c2ccccc2)NC(=O)[C@]2(OC([C@@H](O)[C@@H](O)/C=C/C(C)=O)=C(C)C2=O)[C@H]1O [PSEUROTIN E]
IC50 [1]: > 10 µM

CC/C=C\[C@H](O)[C@H](O)C1=C(C)C(=O)[C@]2(O1)C(=O)N[C@@](O)(C(=O)c1ccccc1)[C@@H]2O [PSEUROTIN F2]
IC50 [1]: > 10 µM

CC/C=C\[C@H]1O[C@@H]1C1=C(C)C(=O)[C@]2(O1)C(=O)N[C@@](OC)(C(=O)c1ccccc1)[C@@H]2O [SYNERAZOL]
IC50 (K562): > 10 µM | IC50 [1]: 0.26 µM | IC50 [2]: > 10 µM | inhibition at 10 µM [3]: 54% | IC50 (Lymphocyte [9]): 3.1 µM

CC/C=C\[C@H](OC(C)=O)[C@H](OC(C)=O)C1=C(C)C(=O)[C@]2(O1)C(=O)N(C(C)=O)[C@@](OC)(C(=O)c1ccccc1)[C@@H]2OC(C)=O [TETRAACETYLPSEUROTIN A]
IC50 [1]: > 10 µM

CC/C=C\[C@H](OC(C)=O)[C@H](OC(C)=O)C1=C(C)C(=O)[C@]2(O1)C(=O)N[C@@](OC)(C(=O)c1ccccc1)[C@@H]2OC(C)=O [TRIACETYLPSEUROTIN A]
IC50 [1]: > 10 µM
